Molecular target: T1, human recombinant mGluR5 (Homo sapiens, UniProt P41594)
T1 construct: expressed in transfected cells; host or cells: HEK 293 cell line, cultured with tetracycline, hygromycin and geneticin; tetracycline is withdrawn 3-7 days before the assay
Experiment: positive modulation of mGluR5, calcium based FLIPR assay
Format: cell-based
Conditions: EC50 of the modulation; HEK 293 cell line expressing human recombinant mGluR5; peak height of Ca fluorescence signal after glutamate at approx. 5% basal stimulation; read-out: EC50
Method: The positive modulation of mGluR5 is measured in a HEK 293 cell line expressing human recombinant mGluR5 and is detected with calcium based FLIPR assay. The cells are cultured with DMEM supplemented with 10% FCS, 2 μg/mL tetracycline, 100 μg/mL hygromycin and 500 μg/mL gneticin. The cell culture media is exchanged for tetracycline-free cell culture media 3-7 days before the assay. One day before the assay the cell culture medium is exchanged to DMEM without glutamine and phenol red and supplemented with 10% FCS, 100 μg/mL hygromycin and 500 μg/mL geneticin. On the assay day, the medium of the subconfluent cultures is removed and the cells are detached by addition of 2.5 ml EDTA (0.02%) per 175 cm2 culture flask for 1 minute. The cells are resuspend in Ringer solution (140 mM NaCl, 5 mM KCl, 2.5 mM CaCl2, 1.5 mM MgCl2, 5 mM Glucose, 10 mM Hepes; adjusted to pH 7.4 with NaOH), pooled and Ringer solution added to adjust the volume to 50 mL. The cell suspension is centrifuged for 5 min at 1500 U/min (425 g). The supernatant is removed and the cells washed a second time with 50 ml fresh Ringer solution and centrifuged again as before. The supernatant is again removed and the pellet resuspended in Ringer solution to 1,000,000 cells/ml (1×10^6 cells/mL). The cells are plated onto BD BioCoat Poly-D-Lysine 384 well plates (20.000 cells/well; 20 μl/well). The lid covered plates are then incubated until use at 37° C./10% CO2. For dye loading, 20 μl of Calcium-4 assay kit solution (prepared according to the manufacturer's description in Ringer solution) are added to the cells and the plates are incubated for 80 min 37° C. and then 10 min at room temperature. • Controls, Compound dilution and assay execution: • Each assay plate contained wells with “high” and “low” controls:
Low controls 1% DMSO/ringer solution+basal glutamate activation (defined as 100% CTL).
High controls 10 μM CDPPB+basal glutamate activation (defined as 200% CTL).
Test compounds are dissolved and diluted in DMSO to 100-fold the desired concentrations. In a second step, the compounds are diluted in Ringer solution such that the compounds are 4-fold more concentrated than the desired final assay concentration. The final DMSO concentration was 1%.
20 μl of each compound solution are then transferred to the assay plate and the Ca2+ kinetic is measured to determine any intrinsic compound activity. After 5 min incubation in the FLIPR device, the second stimulation with 20 μl of glutamate in Ringer solution (glutamate concentration adjusted to approximately 5% basal stimulation of the maximal possible glutamate effect) is added and the kinetic Ca2+ response of the wells was measured for the modulation effect.
The peak height of the Ca release related fluorescence signal (9-66) is used for the EC50. The EC50 of the modulation is calculated over a nonlinear regression with GraphPad Prism (Table 1).

T1 sequence (P41594 21-1212): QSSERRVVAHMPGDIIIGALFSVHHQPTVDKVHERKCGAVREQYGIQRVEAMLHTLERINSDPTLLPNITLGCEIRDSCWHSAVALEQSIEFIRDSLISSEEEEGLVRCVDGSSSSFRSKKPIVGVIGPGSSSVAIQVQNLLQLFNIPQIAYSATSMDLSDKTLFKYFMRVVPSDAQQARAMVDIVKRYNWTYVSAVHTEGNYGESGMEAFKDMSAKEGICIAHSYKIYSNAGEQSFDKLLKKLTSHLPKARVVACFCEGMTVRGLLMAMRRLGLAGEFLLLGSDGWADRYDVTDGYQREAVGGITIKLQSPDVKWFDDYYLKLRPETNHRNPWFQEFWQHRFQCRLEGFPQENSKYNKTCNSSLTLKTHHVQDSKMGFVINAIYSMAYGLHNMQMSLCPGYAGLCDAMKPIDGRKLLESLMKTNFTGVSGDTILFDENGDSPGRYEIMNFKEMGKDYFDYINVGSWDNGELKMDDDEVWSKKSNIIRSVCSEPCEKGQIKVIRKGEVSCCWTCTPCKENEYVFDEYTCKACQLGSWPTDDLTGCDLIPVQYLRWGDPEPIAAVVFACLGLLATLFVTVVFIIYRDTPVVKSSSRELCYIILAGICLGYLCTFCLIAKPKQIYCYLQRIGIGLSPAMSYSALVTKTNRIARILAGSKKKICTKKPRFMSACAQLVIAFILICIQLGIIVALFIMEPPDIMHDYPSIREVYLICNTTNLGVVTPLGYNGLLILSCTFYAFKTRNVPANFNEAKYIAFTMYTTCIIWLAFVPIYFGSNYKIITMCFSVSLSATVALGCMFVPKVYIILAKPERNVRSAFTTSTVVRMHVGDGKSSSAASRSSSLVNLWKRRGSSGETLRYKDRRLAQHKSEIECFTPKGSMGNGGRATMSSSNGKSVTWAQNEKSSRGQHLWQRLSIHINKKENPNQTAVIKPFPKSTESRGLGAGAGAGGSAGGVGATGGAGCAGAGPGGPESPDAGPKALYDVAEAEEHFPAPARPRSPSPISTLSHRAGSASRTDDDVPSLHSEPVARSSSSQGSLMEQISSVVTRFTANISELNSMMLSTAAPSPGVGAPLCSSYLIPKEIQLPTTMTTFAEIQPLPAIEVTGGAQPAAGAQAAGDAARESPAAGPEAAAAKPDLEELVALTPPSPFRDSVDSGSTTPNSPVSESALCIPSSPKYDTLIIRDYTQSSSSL

Row | SMILES | EC50 [nM]
1 | O=C(Cn1nc(-c2ccc(F)cc2)nc1-c1ccc(F)cc1)N1CCN(Cc2ccccc2)C(=O)C1 [Example 7.03.007.] | 1380
2 | Cc1nc2c(s1)CCN(C(=O)Cn1nc(-c3ccc(F)c(C)c3)nc1-c1ccccc1)CC2 [Example 7.03.063.] | 60
3 | Nc1nc2c(s1)CCN(C(=O)Cn1nc(-c3ccc(F)cn3)nc1-c1ccc(F)cc1)CC2 [Example 7.03.115.] | 231
4 | O=C(Cn1nc(-c2ccc(F)cc2)nc1-c1ccc(F)cc1)N1CCc2ncnc(-c3ccccc3)c2CC1 [Example 7.02.37.] | 708
5 | Cc1cnc(C2CCN(C(=O)Cn3nc(-c4ccc(F)cc4)nc3-c3ccc(F)cc3)CC2)o1 [Example 7.03.035.] | 170
6 | CN(C)c1nc2c(s1)CCN(C(=O)Cn1nc(-c3ccc(F)cc3)nc1-c1ccc(F)cc1)CC2 [Example 7.04.03.] | 346
7 | Cc1cc(-c2nc(-c3ccccc3)n(CC(=O)N3CCc4nc(N)sc4C3)n2)ccc1F [Example 7.02.78.] | 274
8 | O=C(Cn1nc(-c2ccc(F)cc2)nc1-c1ccc(F)cc1)N1CC=C(c2ncco2)CC1 [Example 7.03.040.] | 54
9 | Cc1nc2c(s1)C(C)CN(C(=O)Cn1nc(-c3ccc(F)cc3)nc1-c1ccc(F)cc1)CC2 (centres unmarked) [Example 7.03.037.] | 312
10 | Cc1nc2c(o1)CN(C(=O)Cn1nc(-c3ccc(F)cc3)nc1-c1ccc(F)cc1)CC2 [Example 7.02.54.] | 206
11 | Nc1nc2c(s1)CCN(C(=O)Cn1nc(-c3ccccc3)nc1-c1ccccc1)CC2 [Example 7.03.049.] | 1440
12 | Cc1ncc2c(n1)CCN(C(=O)Cn1nc(-c3ccc(F)cc3)nc1-c1ccc(F)cc1)C2 [Example 7.02.55.] | 1200
13 | Cc1cc(-c2nc(C(C)C)n(CC(=O)N3CC=C(c4ncccn4)CC3)n2)ccc1F [Example 7.03.076.] | 1710
14 | COc1cc2c(cc1OC)CCN(C(=O)Cn1nc(-c3ccc(F)cc3)nc1-c1ccc(F)cc1)CC2 [Example 7.02.62.] | 311
15 | O=C(Cn1nc(-c2ccc(F)cc2)nc1-c1ccc(F)cc1)N1CCc2cccc(F)c2C1 [Example 7.02.10.] | 965
16 | O=C(Cn1nc(-c2ccc(F)cc2)nc1-c1ccc(F)cc1)N1CCC(Oc2ccccc2)CC1 [Example 7.03.005.] | 958
17 | CC(=O)Nc1nc2c(s1)CCN(C(=O)Cn1nc(-c3ccc(F)cc3)nc1-c1ccc(F)cc1)CC2 [Example 7.02.07.] | 1200
18 | O=C(Cn1nc(-c2ccc(F)cc2)nc1-c1ccc(F)cc1)N1CCc2ncsc2C1 [Example 7.02.43.] | 1640
19 | COC(=O)c1ccc2c(c1)CCN(C(=O)Cn1nc(-c3ccc(F)c(C)c3)nc1-c1ccccc1)CC2 [Example 7.02.79.] | 54

Row | SMILES | EC50 [nM]
20 | CCc1nc(-c2ccc(OC(F)F)cc2)nn1CC(=O)N1CCc2nc(C)sc2CC1 [Example 7.03.126] | 201
21 | CC(C)c1ncc2c(n1)CCN(C(=O)Cn1nc(-c3ccc(F)cc3)nc1-c1ccc(F)cc1)C2 [Example 7.02.70.] | 376
22 | O=C(Cn1nc(-c2ccc(F)cc2)nc1-c1ccc(F)cc1)N1CCc2nc(-c3ccccc3)ncc2C1 [Example 7.03.002.] | 708
23 | O=C(Cn1nc(-c2ccc(F)cc2)nc1-c1ccc(F)cc1)N1CCc2cn[nH]c2CC1 [Example 7.02.51.] | 707
24 | Cc1nc2c(s1)CCN(C(=O)Cn1nc(-c3ccc(F)c(C)c3)nc1C)CC2 [Example 7.03.087.] | 647
25 | COc1cccc2c1CCN(C(=O)Cn1nc(-c3ccc(F)cc3)nc1-c1ccc(F)cc1)C2 [Example 7.02.08.] | 666
26 | Cc1cc(-c2nc(CCC(C)C)n(CC(=O)N3CCc4nc(N)sc4CC3)n2)ccc1F [Example 7.03.112.] | 147
27 | O=C(c1ccccc1)C1CCN(C(=O)Cn2nc(-c3ccc(F)cc3)nc2-c2ccc(F)cc2)CC1 [Example 7.02.71.] | 441
28 | CCCc1nc(-c2ccc(OC(F)F)cc2)nn1CC(=O)N1CCc2nc(C)sc2CC1 [Example 7.03.131] | 316
29 | O=C(Cn1nc(-c2ccc(F)cc2)nc1-c1ccc(F)cc1)N1CCc2cc(O)ccc2C1 [Example 7.02.53.] | 229
30 | Cc1nc2c(s1)CCN(C(=O)Cn1nc(-c3ccc(F)c(C)c3)nc1C1CCCC1)CC2 [Example 7.03.107.] | 63
31 | O=C(Cn1nc(-c2ccc(F)cc2)nc1-c1ccc(F)cc1)N1CCN(c2nccs2)CC1 [Example 7.03.048.] | 88
32 | O=C(Cn1nc(-c2ccc(F)cc2)nc1-c1ccc(F)cc1)N1CCc2nc(N3CCCC3)sc2CC1 [Example 7.04.01., 2-[3,5-bis-(4-Fluoro-phenyl)-(1,2,4)triazol-1-yl)-1-(2-pyrrolidin-1-yl-4,5,7,8-tetrahydro-thiazolo[4,5-d]azepin-6-yl)-ethanone] | 678
33 | COc1cc2c(cc1OC)CCN(C(=O)Cn1nc(-c3ccc(F)c(C)c3)nc1-c1ccccc1)CC2 [Example 7.02.90.] | 155
34 | COc1cc(-c2nc(-c3ccc(F)cc3)nn2CC(=O)N2CCc3nc(C)sc3CC2)ccc1F [Example 7.03.069.] | 574
35 | Cc1cc(-c2nc(-c3ccccc3)n(CC(=O)N3CCc4cc(-c5ccccc5)nnc4CC3)n2)ccc1F [Example 7.02.82.] | 149
36 | O=C(Cn1nc(-c2ccc(F)cc2)nc1-c1ccc(F)cc1)N1CC=C(c2ccccn2)CC1 [Example 7.03.024.] | 107
37 | O=C(Cn1nc(-c2ccc(F)cc2)nc1-c1ccc(F)cc1)N1CCc2ccccc2CC1 [Example 7.02.12.] | 1020
38 | COc1ccc(-c2nc(-c3ccc(F)cc3)nn2CC(=O)N2CCc3nc(C)sc3CC2)cc1 [Example 7.03.058.] | 117

Row | SMILES | EC50 [nM]
39 | Cc1nc2c(o1)CCN(C(=O)Cn1nc(-c3ccc(F)cc3)nc1-c1ccc(F)cc1)CC2 [Example 7.03.122.] | 57
40 | CCc1nc(-c2ccc(F)c(C)c2)nn1CC(=O)N1CCc2nc(C)sc2CC1 [Example 7.03.081.] | 413
41 | COc1ccc(-c2nc(-c3ccc(F)cc3)n(CC(=O)N3CCc4nc(N)sc4CC3)n2)cc1 [Example 7.03.055.] | 100
42 | COc1cc(-c2nc(-c3ccc(F)cc3)n(CC(=O)N3CCc4nc(C)sc4CC3)n2)ccc1F [Example 7.03.089.] | 71
43 | Cc1cc(-c2nc(C3CCCC(C)C3)n(CC(=O)N3CCc4nc(N)sc4CC3)n2)ccc1F (centres unmarked) [Example 7.03.095.] | 610
44 | CCc1nc(-c2ccc(F)c(C)c2)nn1CC(=O)N1CCc2nc(N)sc2CC1 [Example 7.03.082.] | 1890
45 | CCCCCc1nc(-c2ccc(F)c(C)c2)nn1CC(=O)N1Cc2nc(C)sc2C1 [Example 7.03.108.] | 201
46 | Cc1nc2c(o1)CN(C(=O)Cn1nc(-c3ccc(F)c(C)c3)nc1-c1ccccc1)CC2 [Example 7.03.064.] | 86
47 | Cc1nc2c(s1)CN(C(=O)Cn1nc(-c3ccc(F)c(C)c3)nc1CCC(C)C)C2 [Example 7.03.113.] | 340
48 | COc1ccc(-c2nc(-c3ccccc3)n(CC(=O)N3Cc4nc(C)sc4C3)n2)cc1 [Example 7.03.050.] | 338
49 | O=C(Cn1nc(-c2ccc(F)cc2)nc1-c1ccc(F)cc1)N1CCC(c2ncc(-c3ccccc3)s2)CC1 [Example 7.02.19.] | 1990
50 | COc1cccc2c1CN(C(=O)Cn1nc(-c3ccc(F)cc3)nc1-c1ccc(F)cc1)C2 [Example 7.02.46.] | 381
51 | COc1cc(C2=CCN(C(=O)Cn3nc(-c4ccc(F)cc4)nc3-c3ccc(F)cc3)CC2)ncn1 [Example 7.03.025.] | 97
52 | O=C(Cn1nc(-c2ccc(F)cc2)nc1-c1ccc(F)cc1)N1CCC(c2ccccn2)CC1 [Example 7.03.027.] | 739
53 | CC(C)NC(=O)Nc1nc2c(s1)CN(C(=O)Cn1nc(-c3ccc(F)cc3)nc1-c1ccc(F)cc1)CC2 [Example 7.02.16.] | 1360
54 | CCCCc1nc(-c2ccc(F)c(C)c2)nn1CC(=O)N1CCN(c2cccc(OC)c2)C(=O)C1 [Example 7.03.100.] | 302
55 | COc1ccc2c(c1)CN(C(=O)Cn1nc(-c3ccc(F)cc3)nc1-c1ccc(F)cc1)C2 [Example 7.02.47.] | 206
56 | Cc1cc(-c2nc(C3CCCC3)n(CC(=O)N3CCc4nc(N)sc4CC3)n2)ccc1F [Example 7.03.106.] | 251

Reference: patent US8642774B2, “Compounds” (Boehringer Ingelheim International GmbH, priority 2011, dated 2014)
